Source: patent US10669272B2, “Substituted naphthyridinone compounds useful as T cell activators” (BRISTOL-MYERS SQUIBB COMPANY, priority 2018, dated 2020)
Like-named read-outs stand apart in the source and are kept apart here.

Assays:
Human venous whole blood = experiment: Human whole blood IFN-γ assay; assay type: cell-based; conditions: human whole blood, normalized to 3 μM reference compound with anti-CD3 plus anti-CD28 as 100% activation, read-out: INFg Whole Blood Normalized Agonist EC50;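 note: blood from healthy donors exposed to compound for 1 h before stimulation with anti-CD3 and anti-CD28 at 1 µg/mL each, IFN-γ quantified in supernatant by AlphaLISA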
Procedure: Human Whole Blood IFN-γ Assay
Human venous whole blood (22.5 μL per well), obtained from healthy donors, was pre-treated with compounds for one hour at 37° C. in a humidified 95% air/5% CO2 incubator. The blood was stimulated with 2.5 μL anti-human CD3 and anti-CD28 mAb at a final concentration of 1 μg/mL each for 24 hours at 37° C. IFN-γ in the supernatants was measured using AlphLISA kit (Cat # AL217).

human DGKα = molecular target: T1, human DGKα (Homo sapiens, UniProt P23743); experiment: DGKα LIPGLO assay (extruded liposome substrate), in vitro DGK inhibition; assay type: biochemical; conditions: liposome (LIPGLO) assay; read-out: DGKa LIPGLO IC50
T1 construct: TVMV protease cleavage site (C); Hexa-His (C); made in house; host or cells: Sf9 insect cells (baculovirus, Bac-to-Bac)
T1 sequence (P23743 with tags, fused parts or gaps): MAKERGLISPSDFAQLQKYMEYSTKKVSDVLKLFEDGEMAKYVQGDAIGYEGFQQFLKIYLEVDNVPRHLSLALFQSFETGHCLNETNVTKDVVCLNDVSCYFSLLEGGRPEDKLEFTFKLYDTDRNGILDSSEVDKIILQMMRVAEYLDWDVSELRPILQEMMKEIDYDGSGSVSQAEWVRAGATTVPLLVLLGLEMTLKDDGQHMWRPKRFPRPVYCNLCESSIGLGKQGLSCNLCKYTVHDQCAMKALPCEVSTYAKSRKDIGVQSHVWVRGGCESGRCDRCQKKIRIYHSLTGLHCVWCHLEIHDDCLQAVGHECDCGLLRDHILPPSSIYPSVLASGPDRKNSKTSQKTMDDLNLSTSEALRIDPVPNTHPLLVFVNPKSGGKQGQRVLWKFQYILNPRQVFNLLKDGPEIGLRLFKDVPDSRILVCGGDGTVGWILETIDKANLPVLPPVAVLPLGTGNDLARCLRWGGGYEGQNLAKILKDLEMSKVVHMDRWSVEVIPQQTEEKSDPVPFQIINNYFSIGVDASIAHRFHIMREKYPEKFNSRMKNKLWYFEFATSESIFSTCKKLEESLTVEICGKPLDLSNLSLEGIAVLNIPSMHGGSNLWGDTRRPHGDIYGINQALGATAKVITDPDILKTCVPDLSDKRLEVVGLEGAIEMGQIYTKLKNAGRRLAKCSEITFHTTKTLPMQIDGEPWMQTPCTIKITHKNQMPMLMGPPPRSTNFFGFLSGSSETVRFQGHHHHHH

human DGKζ = molecular target: T2, human DGKζ (Homo sapiens, UniProt Q13574); experiment: DGKζ LIPGLO assay (extruded liposome substrate), in vitro DGK inhibition; assay type: biochemical; conditions: liposome (LIPGLO) assay; read-out: DGKz LIPGLO IC50
T2 construct: TVMV protease cleavage site (C); Hexa-His (C); made in house; host or cells: Sf9 insect cells (baculovirus, Bac-to-Bac)
T2 sequence (Q13574 with tags, fused parts or gaps isoform Q13574-4): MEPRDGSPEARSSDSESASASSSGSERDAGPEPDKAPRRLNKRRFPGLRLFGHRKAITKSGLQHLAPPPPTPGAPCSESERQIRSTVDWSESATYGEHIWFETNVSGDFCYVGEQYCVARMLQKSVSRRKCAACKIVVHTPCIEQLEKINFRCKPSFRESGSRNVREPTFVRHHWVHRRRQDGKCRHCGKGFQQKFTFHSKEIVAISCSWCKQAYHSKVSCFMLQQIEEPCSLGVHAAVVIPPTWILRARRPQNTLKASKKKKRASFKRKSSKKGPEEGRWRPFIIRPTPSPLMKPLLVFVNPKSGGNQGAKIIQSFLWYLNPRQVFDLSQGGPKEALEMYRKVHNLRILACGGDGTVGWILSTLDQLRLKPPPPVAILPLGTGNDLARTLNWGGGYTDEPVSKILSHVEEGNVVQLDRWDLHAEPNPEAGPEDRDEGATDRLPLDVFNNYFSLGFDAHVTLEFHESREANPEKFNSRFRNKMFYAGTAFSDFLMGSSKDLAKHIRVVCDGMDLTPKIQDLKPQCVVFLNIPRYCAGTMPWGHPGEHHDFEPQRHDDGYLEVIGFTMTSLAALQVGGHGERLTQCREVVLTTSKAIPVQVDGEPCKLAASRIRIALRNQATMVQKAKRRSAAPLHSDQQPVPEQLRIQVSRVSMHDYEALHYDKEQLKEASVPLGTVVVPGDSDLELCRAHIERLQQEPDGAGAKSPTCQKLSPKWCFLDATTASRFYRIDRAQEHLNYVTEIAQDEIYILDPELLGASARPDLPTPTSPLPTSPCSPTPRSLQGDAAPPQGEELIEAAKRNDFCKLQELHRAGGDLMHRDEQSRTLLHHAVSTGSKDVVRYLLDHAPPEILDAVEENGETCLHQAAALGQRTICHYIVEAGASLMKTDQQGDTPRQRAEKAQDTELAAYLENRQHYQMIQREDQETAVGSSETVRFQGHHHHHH

[1] = test system: OT-1 CD8+ T cells with SIINFEKL-loaded MC38 tumor cells; experiment: Murine cytotoxic T lymphocyte assay (IFN-γ, OT-1 CTL with MC38 tumor cells); assay type: cell-based, mouse; conditions: read-out: msCTL INFg IC50
In short: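 IFN-γ was quantified by AlphaLISA in supernatants after 24 h co-culture at 37° C. Effectors were OT-1 CD8+ CTLs (5-day peptide/mIL2 expansion), exposed 1 h to DGK inhibitors before mixing 1:10 with MC38 tumor cells loaded 3 h with 1 μg/mL SIINFEKL peptide.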

naïve human CD8 T cells = experiment: Human CD8 T cells IFN-γ assay; assay type: cell-based; conditions: normalized to 3 μM reference compound with anti-CD3 plus anti-CD28 as 100% activation, read-out: HuCD8 INFG Normalized EC50;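 note: Naïve human CD8 T cells stimulated with plate-bound anti-CD3 and soluble anti-CD28, IFN-γ in supernatant quantified by AlphaLISA and converted to pg/mL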

Structure (SMILES)	EC50 (Human venous whole blood; Homo sapiens, 24 h) [nM]	IC50 (human DGKα) [nM]	IC50 (human DGKζ) [nM]	IC50 ([1]; Mus musculus, MC-38) [nM]	EC50 (naïve human CD8 T cells) [nM]	EC50 (naïve human CD8 T cells; Homo sapiens, T-cell, 20 h) [nM]	EC50 (Human venous whole blood) [nM]	IC50 [1] [nM]
Cn1c(=O)cc(N2CCN(C(c3ccc(F)cc3)c3ccc(F)cc3)C(C(N)=O)C2)c2nc(C#N)ccc21 (single isomer, unassigned) [Example 42, 1-(bis(4-fluorophenyl)methyl)-4-(6-cyano-1-methyl-2-oxo-1,2-dihydro-1,5-naphthyridin-4-yl)piperazine-2-carboxamide]	3100	180000	9700	2600	610	–	–	–
Cn1c(=O)cc(N2CCN(C(c3ccc(F)cc3)c3ccc(F)cc3)C(C#N)C2)c2nc(C#N)ccc21 (single isomer, unassigned) [Example 44, 8-(4-(bis(4-fluorophenyl)methyl)-3-cyanopiperazin-1-yl)-5-methyl-6-oxo-5,6-dihydro-1,5-naphthyridine-2-carbonitrile]	3900	2900	5500	590	–	460	–	–
Cn1c(=O)cc(N2CCN(C(c3ccc(F)cc3)c3ccc(F)cc3)C(C#N)C2)c2nc(C#N)ccc21 (single isomer, unassigned) [Example 45, 8-(4-(bis(4-fluorophenyl)methyl)-3-cyanopiperazin-1-yl)-5-methyl-6-oxo-5,6-dihydro-1,5-naphthyridine-2-carbonitrile]	–	7200	2400	–	530	–	2300	910
COC(=O)C1CN(c2c(C#N)c(=O)n(C)c3ccc(C#N)nc23)CCN1C(c1ccc(F)cc1)c1ccc(F)cc1 (single isomer, unassigned) [Example 50, methyl 1-(bis(4-fluorophenyl)methyl)-4-(3,6-dicyano-1-methyl-2-oxo-1,2-dihydro-1,5-naphthyridin-4-yl)piperazine-2-carboxylate]	1500	2200	750	–	72	–	–	150
COC(=O)C1CN(c2c(Cl)c(=O)n(C)c3ccc(C#N)nc23)CCN1C(c1ccc(F)cc1)c1ccc(F)cc1 (single isomer, unassigned) [Example 76, methyl 1-(bis(4-fluorophenyl)methyl)-4-(3-chloro-6-cyano-1-methyl-2-oxo-1,2-dihydro-1,5-naphthyridin-4-yl)piperazine-2-carboxylate]	1600	3400	5200	–	–	10000	–	280
COC(=O)C1CN(c2c(Cl)c(=O)n(C)c3ccc(C#N)nc23)CCN1C(c1ccc(F)cc1)c1ccc(F)cc1 (single isomer, unassigned) [Example 77, methyl 1-(bis(4-fluorophenyl)methyl)-4-(3-chloro-6-cyano-1-methyl-2-oxo-1,2-dihydro-1,5-naphthyridin-4-yl)piperazine-2-carboxylate]	–	81000	240000	–	10000	–	1700	3300
Cn1c(=O)cc(N2CCN(C(c3ccc(F)cc3)c3ccc(F)cc3)C(C(C)(C)O)C2)c2nc(C#N)ccc21 (single isomer, unassigned) [Example 78, 8-(4-(bis(4-fluorophenyl)methyl)-3-(2-hydroxypropan-2-yl)piperazin-1-yl)-5-methyl-6-oxo-5,6-dihydro-1,5-naphthyridine-2-carbonitrile]	8400	18000	1900	–	210	–	–	2000
Cn1c(=O)cc(N2CCN(C(c3ccc(F)cc3)c3ccc(F)cc3)C(C(C)(C)O)C2)c2nc(C#N)ccc21 (single isomer, unassigned) [Example 79, 8-(4-(bis(4-fluorophenyl)methyl)-3-(2-hydroxypropan-2-yl)piperazin-1-yl)-5-methyl-6-oxo-5,6-dihydro-1,5-naphthyridine-2-carbonitrile]	–	6700	240000	–	10000	–	10000	8000
Cn1c(=O)cc(N2CCN(C(c3ccc(F)cc3)c3ccc(F)cc3)C(C(C)(C)F)C2)c2nc(C#N)ccc21 (single isomer, unassigned) [Example 81, 8-(4-(bis(4-fluorophenyl)methyl)-3-(2-fluoropropan-2-yl)piperazin-1-yl)-5-methyl-6-oxo-5,6-dihydro-1,5-naphthyridine-2-carbonitrile]	–	25000	16000	–	–	1700	8700	580
CC(C)C(C)(O)C1CN(c2cc(=O)n(C)c3ccc(C#N)nc23)CCN1C(c1ccc(F)cc1)c1ccc(F)cc1 (single isomer, unassigned) [Example 88, 8-(4-(bis(4-fluorophenyl)methyl)-3-(2-hydroxy-3-methylbutan-2-yl)piperazin-1-yl)-5-methyl-6-oxo-5,6-dihydro-1,5-naphthyridine-2-carbonitrile]	10000	140000	240000	–	–	2000	–	990
COCC1CN(c2cc(=O)n(C)c3ccc(C#N)nc23)CCN1C(c1ccc(F)cc1)c1ccc(F)cc1 (single isomer, unassigned) [Example 92, 8-(4-(bis(4-fluorophenyl)methyl)-3-(methoxymethyl)piperazin-1-yl)-5-methyl-6-oxo-5,6-dihydro-1,5-naphthyridine-2-carbonitrile]	–	96000	5400	–	9700	–	9000	690
COCC1CN(c2cc(=O)n(C)c3ccc(C#N)nc23)CCN1C(c1ccc(F)cc1)c1ccc(F)cc1 (single isomer, unassigned) [Example 93, 8-(4-(bis(4-fluorophenyl)methyl)-3-(methoxymethyl)piperazin-1-yl)-5-methyl-6-oxo-5,6-dihydro-1,5-naphthyridine-2-carbonitrile]	–	4300	680	–	63	–	1400	81
COC(=O)C1CN(c2cc(=O)n(C)c3ccc(C#N)nc23)CCN1C(c1ccc(Cl)cc1)c1ccc(Cl)cc1 (single isomer, unassigned) [Example 97, methyl 1-(bis(4-chlorophenyl)methyl)-4-(6-cyano-1-methyl-2-oxo-1,2-dihydro-1,5-naphthyridin-4-yl)piperazine-2-carboxylate]	–	14000	1700	96	–	57	1700	–
Cn1c(=O)c(Cl)c(N2CCN(C(c3ccc(F)cc3)c3ccc(F)cc3)C(CO)C2)c2nc(C#N)ccc21 (single isomer, unassigned) [Example 100, 8-(4-(bis (4-fluorophenyl)methyl)-3-(hydroxymethyl)piperazin-1-yl)-7-chloro-5-methyl-6-oxo-5,6-dihydro-1,5-naphthyridine-2-carbonitrile]	1400	1900	3100	110	–	89	–	–
Cn1c(=O)c(Cl)c(N2CCN(C(c3ccc(F)cc3)c3ccc(F)cc3)C(CO)C2)c2nc(C#N)ccc21 (single isomer, unassigned) [Example 101, 8-(4-(bis (4-fluorophenyl)methyl)-3-(hydroxymethyl)piperazin-1-yl)-7-chloro-5-methyl-6-oxo-5,6-dihydro-1,5-naphthyridine-2-carbonitrile]	–	3300	1600	–	77	–	2300	140
Cn1c(=O)cc(N2CCN(C(c3ccc(F)cc3)c3ccc(F)cc3)C(C(=O)OC3CC3)C2)c2nc(C#N)ccc21 (single isomer, unassigned) [Example 106, cyclopropyl 1-(bis(4-fluorophenyl)methyl)-4-(6-cyano-1-methyl-2-oxo-1,2-dihydro-1,5-naphthyridin-4-yl)piperazine-2-carboxylate]	8500	240000	13000	–	610	–	–	2900
Cn1c(=O)cc(N2CCN(C(c3ccc(F)cc3)c3ccc(F)cc3)C(C(=O)OC3CC3)C2)c2nc(C#N)ccc21 (single isomer, unassigned) [Example 107, cyclopropyl 1-(bis(4-fluorophenyl)methyl)-4-(6-cyano-1-methyl-2-oxo-1,2-dihydro-1,5-naphthyridin-4-yl)piperazine-2-carboxylate]	–	40000	200	–	27	–	11000	750
COc1cc(F)ccc1C(c1ccc(F)cc1)N1C[C@H](C)N(c2cc(=O)n(C)c3ccc(C#N)nc23)C[C@H]1C (single isomer, unassigned) [Example 108]	–	3400	130	–	33	–	440	130
COc1cc(F)ccc1C(c1ccc(F)cc1)N1C[C@H](C)N(c2cc(=O)n(C)c3ccc(C#N)nc23)C[C@H]1C (single isomer, unassigned) [Example 109]	–	24000	100	–	15	–	1300	480
